Measured values: patent US12409171B2, “Pharmaceutically active pyrazolo-pyridone modulators of DCN1/2-mediated cullin neddylation” (UNIVERSITY OF KENTUCKY RESEARCH FOUNDATION, priority 2019, dated 2025)

Target: DCN1 (Homo sapiens (Human), UniProt Q96GG9)
Assay: TR-FRET binding assay (biotin-DCN1 / Ac-UBE2M12-AlexaFluor488)
Settings: mean ± SD (n); read-out: DCN1_TRFRET Mean EC50
Outline: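 Biotinylated DCN1 binding to Ac-UBE2M12-AlexaFluor488 read by TR-FRET; assay cocktail pre-incubated 1 h at room temperature before compounds added from DMSO stocks by pin transfer. IC50 is the mean of three replicates ± SD; compounds tested in triplicate or more.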

Sequence of DCN1 (Q96GG9 whole entry): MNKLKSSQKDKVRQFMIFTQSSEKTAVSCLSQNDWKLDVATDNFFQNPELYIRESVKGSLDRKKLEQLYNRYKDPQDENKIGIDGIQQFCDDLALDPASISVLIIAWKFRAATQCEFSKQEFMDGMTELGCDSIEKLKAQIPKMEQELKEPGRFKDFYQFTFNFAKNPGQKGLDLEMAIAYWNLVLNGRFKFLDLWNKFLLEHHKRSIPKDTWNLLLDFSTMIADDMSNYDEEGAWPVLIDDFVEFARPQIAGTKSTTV

Row | SMILES | EC50 [nM]
1 | CC(=O)NCN1C(=O)[C@@H](NC(=O)c2cccc(C(F)(F)F)c2)[C@@H](c2ccc(F)cc2)c2c(C)nn(-c3ccccc3)c21 [RG-0013840, N-[(4S,5S)-7-(acetamidomethyl)-4-(4-fluorophenyl)-3-methyl-6-oxo-1-phenyl-1H,4H,5H,6H,7H-pyrazolo[3,4-b]pyridin-5-yl]-3-(trifluoromethyl)benzamide] | > 36500
2 | CCN1C(=O)[C@@H](N)[C@@H](c2ccc(F)cc2)c2c(C)nn(-c3ccccc3)c21 [RG-0013837, (4S,5S)-5-amino-7-ethyl-4-(4-fluorophenyl)-3-methyl-1-phenyl-1H,4H,5H,6H,7H-pyrazolo[3,4-b]pyridin-6-one] | > 36500
3 | CCN1C(=O)[C@@H](NC(=O)c2cccc([N+](=O)[O-])c2)[C@@H](c2ccc(F)cc2)c2c(C)nn(-c3ccccc3)c21 [RG-0013844, N-[(4S,5S)-7-ethyl-4-(4-fluorophenyl)-3-methyl-6-oxo-1-phenyl-1H,4H,5H,6H,7H-pyrazolo[3,4-b]pyridin-5-yl]-3-nitrobenzamide] | 1980 ± 134
4 | CCN1C(=O)[C@@H](NC(=O)c2cccc(C(F)(F)F)c2)[C@@H](c2ccc(C)s2)c2c(C)nn(-c3ccccc3)c21 [RG-0014004, N-[(4S,5S)-7-ethyl-3-methyl-4-(5-methylthiophen-2-yl)-6-oxo-1-phenyl-1H,4H,5H,6H,7H-pyrazolo[3,4-b]pyridin-5-yl]-3-(trifluoromethyl)benzamide] | 1410 ± 15.9
5 | CCN1C(=O)[C@@H](NC(=O)c2cccc(C)c2)[C@@H](c2ccc(F)cc2)c2c(C)nn(-c3ccccc3F)c21 [RG-0008870, N-[(4S,5S)-7-ethyl-1-(2-fluorophenyl)-4-(4-fluorophenyl)-3-methyl-6-oxo-1H,4H,5H,6H,7H-pyrazolo[3,4-b]pyridin-5-yl]-3-methylbenzamide] | 187 ± 5.73
6 | CCN1C(=O)[C@@H](NC(=O)c2ccc3ncsc3c2)[C@@H](c2ccc(F)cc2)c2c(C)nn(-c3ccccc3)c21 [RG-0014158, N-[(4S,5S)-7-ethyl-4-(4-fluorophenyl)-3-methyl-6-oxo-1-phenyl-1H,4H,5H,6H,7H-pyrazolo[3,4-b]pyridin-5-yl]-1,3-benzothiazole-6-carboxamide] | 6310 ± 465
7 | CCN1C(=O)[C@@H](NC(=O)c2ccc3c(ccn3C)c2)[C@@H](c2ccc(F)cc2)c2c(C)nn(-c3ccccc3)c21 [RG-0014151, N-[(4S,5S)-7-ethyl-4-(4-fluorophenyl)-3-methyl-6-oxo-1-phenyl-1H,4H,5H,6H,7H-pyrazolo[3,4-b]pyridin-5-yl]-1-methyl-1H-indole-5-carboxamide] | 3230 ± 806
8 | CCCN1C(=O)[C@@H](NC(=O)c2cccc(C)c2)[C@@H](c2ccc(F)cc2)c2c(C)nn(CCC)c21 [RG-0008666, N-[(4S,5S)-4-(4-fluorophenyl)-3-methyl-6-oxo-1,7-dipropyl-1H,4H,5H,6H,7H-pyrazolo[3,4-b]pyridin-5-yl]-3-methylbenzamide] | 1170 ± 99.3
9 | CCN1C(=O)[C@@H](NC(=O)c2cccc(C(F)(F)F)c2)[C@@H](c2ccc(F)nc2)c2c(CN)nn(-c3ccccc3)c21 [RG-0014006, N-[(4S,5S)-3-(aminomethyl)-7-ethyl-4-(6-fluoropyridin-3-yl)-6-oxo-1-phenyl-1H,4H,5H,6H,7H-pyrazolo[3,4-b]pyridin-5-yl]-3-(trifluoromethyl)benzamide] | 135 ± 7
10 | CCN1C(=O)[C@@H](NS(=O)(=O)c2cccc(C(F)(F)F)c2)[C@@H](c2ccc(F)cc2)c2c(C)nn(-c3ccccc3)c21 [RG-0013808, N-[(4S,5S)-7-ethyl-4-(4-fluorophenyl)-3-methyl-6-oxo-1-phenyl-1H,4H,5H,6H,7H-pyrazolo[3,4-b]pyridin-5-yl]-3-(trifluoromethyl)benzene-1-sulfonamide] | > 36500
11 | CC(=O)CN1C(=O)[C@@H](NC(=O)c2cccc(C)c2)[C@@H](c2ccc(F)cc2)c2c(C)nn(-c3ccccc3)c21 [RG-0009508, N-[(4S,5S)-4-(4-fluorophenyl)-3-methyl-6-oxo-7-(2-oxopropyl)-1-phenyl-1H,4H,5H,6H,7H-pyrazolo[3,4-b]pyridin-5-yl]-3-methylbenzamide] | 7050 ± 1670
